Data taken from patent US10722519B2, “Aerosol fluoroquinolone formulations for improved pharmacokinetics” (priority 2008, dated 2020).
Like-named read-outs stand apart in the source and are kept apart here.

Columns and labels:
[1] = clinical
Description: (§1) This analysis compares the appearance and elimination of drug following aerosol and intravenous doses to determine the amount of drug remaining in the lung (absorption compartment) over time. To estimate concentrations of drug in lung, amounts were divided by estimates of the epithelial lung fluid (ELF) volume (25 ml) for each subject. Non-compartmental pharmacokinetic analysis was subsequently applied to these projected concentrations of drug in the lung to determine AUCs.

[2] = Aerosol and IV levofloxacin in saline in normal healthy volunteers and CF subjects (serum, sputum, deconvolution); conditions: for Mean projected Cmax in the ELF: CF patients, ELF volume 25 ml; for AUC / Cmax / half-life / clearance: human, in vivo; for clearance: Total levofloxacin clearance, serum
Description: Safety, tolerability, and pharmacokinetics (serum, sputum, and urinary excretion) data were collected after each dose.
as §1, with “A weight of 1/y-observed was applied in the regression. Goodness of fit was assessed by the minimized objective function and inspection of weighted residual plots. […] Briefly, this” for “This”, “Noncompartmental” for “Non-compartmental”, “values for AUC.” for “AUCs.”
The area under the sputum concentration vs. time curve was estimated using the linear trapezoidal rule.

[3] = in vivo; conditions: Sprague-Dawley, rat, 10 mg/kg
[4] = system: P. aeruginosa; conditions: simulated ELF
[5] = serum, 5 minute IV infusion 50 mg, single healthy volunteer

C[C@H]1COc2c(N3CCN(C)CC3)c(F)cc3c(=O)c(C(=O)O)cn1c23 [Levofloxacin, levofloxacin]
Vd ([1]; human, in vivo, iv): 135 L | clearance ([1]; human, in vivo, iv): 266 mL/min | A [1, 5]: 2.05 mg/L | B [1, 5]: 0.30 mg/L | V2 [1, 5]: 114.03 L | Mean projected Cmax in the ELF ([2]; high dose (RDD 40 mg)): > 1000 µg/mL | Mean projected Cmax in the ELF ([2]; low dose (RDD 20 mg)): exceeded 500 μg/ml | time for which 50% of the lung dose remains in the lung ([2]; CF subjects, aerosol in saline, serum deconvolution): at least 0.5 hours | peak sputum concentrations higher than 750 mg oral dose ([2]; aerosol doses as low as 20 mg): 10 fold | AUC ([2]; 20 mg): 67100 ng·h/mL | Cmax ([2]; 20 mg): 86.2 µg/mL | half-life ([2]; 20 mg): 54 min | AUC ([2]; 40 mg): 171000 ng·h/mL | Cmax ([2]; 40 mg): 212 µg/mL | half-life ([2]; 40 mg): 78 min | clearance ([2]; 50 mg, CF subjects): 235 mL/min | clearance ([2]; 50 mg, NHV subjects): 287 mL/min | AUC ([2]; iv, 50 mg): 2500 ng·h/mL | Cmax ([2]; iv, 50 mg): 0.8 µg/mL | AUC ([2]; po, 750 mg): 93400 ng·h/mL | Cmax ([2]; po, 750 mg): 8.7 µg/mL | CL/F ([3]; inhaled or intranasal): 47.2 mL/min/kg | Cmax ([3]; inhaled or intranasal): 6.01 µg/mL | MRT ([3]; inhaled or intranasal): 42.6 min | bioavailability ([3]; inhaled or intranasal): 97.4% | half-life ([3]; inhaled or intranasal): 31.2 min | Cmax ([3]; iv): 5.54 µg/mL | MRT ([3]; iv): 42 min | half-life ([3]; iv): 29.4 min | 24 h AUC ([4]; 20 mg BID): 700 mg·h/L | Cmax ([4]; 20 mg BID): 500 mg/L | 24 h AUC ([4]; 40 mg BID): 1,400 h · mg/L | Cmax ([4]; 40 mg BID): 1,000 mg/L | 24 h AUC ([4]; 80 mg BID): 2,800 h · mg/L | Cmax ([4]; 80 mg BID): 2,000 mg/L | 24 h AUC ([4]; 120 mg BID): 4,200 h · mg/L | Cmax ([4]; 120 mg BID): 3,000 mg/L
